Reference: US20080031922A1, “Delivery System” (priority 2004, published 2008)
Several values for one entry are separate records, joined by “and”; a condition that tells them apart may be missing. Equal entries are not always repeated.

Key:
Type in all cases: physicochemical
[1] = in vitro release rate of FAP from intrauterine system (IUS)
Procedure: The release rate of the therapeutically active substance from the device was measured in vitro as follows:
The devices (implant, intravaginal ring, intracervical or intrauterine system) were attached into a stainless steel holder in vertical position and the holders with the devices were placed into glass bottles containing 75 ml of a dissolution medium, a 1 wt-% hydroxypropyl cyclodextrin solution. The glass bottles were shaked in shaking waterbath 100 rpm at 37° C. The dissolution medium was withdrawn and replaced by a fresh dissolution medium at predetermined time intervals, and the amount of the released substance was analysed by using standard HPLC methods. The concentration of the dissolution medium and the moment of change (withdrawal and replacement) of medium were selected, so that sink-conditions were maintained during the test.
HPBCD modification was tested with a fluorinated antiprogestin derivative (FAP, 11-(4-Acetylphenyl)-17-hydroxy-17-(1,1,2,2,2-pentafluoroethyl)estra-4,9-dien-3-one) in intrauterine (IUS) system. Two samples of 1 and 4 wt-% of HPBCD content in the membrane were prepared by combining with swelling separately extruded membrane and core elastomer rods over the IUS T-frame. The swelling agent was isopropanol.
The content of the therapeutically active agent in the core elastomer was 65 wt-% and the outer diameter of the core was 2.88-2.92 mm and length 21.0-21.1 mm. The membrane was 3 mm longer than the core and the thickness of the membrane was 0,25 mm. FIG. 3 presents the release rate of the therapeutically active agent (μg/d, shown in the y-axis) from two FAP containing intrauterine systems as a function of time (days, shown in the x-axis) compared to a reference sample. Indeed, the squares represent the results for the reference sample, the losanges illustrate the results for the cyclodextrin modified membrane, when the amount of cyclodextrin was 1 wt-% and the triangles represent the results for the cyclodextrin modified membrane, when the amount of cyclodextrin was 4 wt-%.

[2] = in vitro release rate of danazol from intravaginal ring (IVR)
Procedure: The release rate of the therapeutically active substance from the device was measured in vitro as follows: The devices (implant, intravaginal ring, intracervical or intrauterine system) were attached into a stainless steel holder in vertical position and the holders with the devices were placed into glass bottles containing 75 ml of a dissolution medium, a 1 wt-% hydroxypropyl cyclodextrin solution. The glass bottles were shaked in shaking waterbath 100 rpm at 37° C. The dissolution medium was withdrawn and replaced by a fresh dissolution medium at predetermined time intervals, and the amount of the released substance was analysed by using standard HPLC methods. The concentration of the dissolution medium and the moment of change (withdrawal and replacement) of medium were selected, so that sink-conditions were maintained during the test. […] Hydroxypropyl β-cyclodextrin (HPBCD) was used as the regulating agent. Three different implants with different hydroxypropyl β-cyclodextrin (HPBCD) contents in the membrane were made and the results were compared to corresponding implants without any added HPBCD. All the implants consisted of a core containing the therapeutically active agent and a release rate-controlling membrane encasing the core. The core and the membrane silicone elastomer rods were manufactured by extrusion and the implant compositions were made by swelling the membrane in propanol, as explained above. The content of the therapeutically active agent was 20 wt-% (weight percent) in the core and the micronized hormone was mixed into the elastomer with a mixer before extrusion. The diameters of the IVR rings were ca. 50-55 mm and the periphery of the cross section ca. 9-10 mm, the thicknesses of the membranes were 0.25, 0.35 and 0.7 mm and the HPBCD contents of the membrane were 0.17 wt-%, 1.7 wt-% and 7.7 wt-% respectively. The results are shown in FIG. 1 for the daily in vitro release rate per core area (μg/(d*mm^2), shown as the y axis and days shown in the x-axis), wherein the empty triangles represent the results for 0.17 wt-% HPBCD-content in the membrane with 0.7 mm wall thickness. The empty squares illustrate the results for 1.7 wt-% HPBCD-content in the membrane with 0.35 mm wall thickness and the stars show the results for 7.7 wt-% HPBCD-content in the membrane with 0.25 mm wall thickness. The full triangles represent the comparative results for a membrane with wall thickness of 0.3 mm and the full squares illustrate the comparative results for a membrane with wall thickness of 0.9 mm.

[3] = in vitro release rate of gestodene from implant
Procedure: The release rate of the therapeutically active substance from the device was measured in vitro as follows: The devices (implant, intravaginal ring, intracervical or intrauterine system) were attached into a stainless steel holder in vertical position and the holders with the devices were placed into glass bottles containing 75 ml of a dissolution medium, a 1 wt-% hydroxypropyl cyclodextrin solution. The glass bottles were shaked in shaking waterbath 100 rpm at 37° C. The dissolution medium was withdrawn and replaced by a fresh dissolution medium at predetermined time intervals, and the amount of the released substance was analysed by using standard HPLC methods. The concentration of the dissolution medium and the moment of change (withdrawal and replacement) of medium were selected, so that sink-conditions were maintained during the test. The present invention was also tested with an implant containing gestodene, a synthetic progestogene hormone. The implant core and membrane rods were made with extrusion and the implant composition was made by swelling the membrane in propanol. The outer diameter of the implant core was 2.5-3.0 mm and the length 40-48 mm. The content of the therapeutically active agent in the core was 65 wt-%. The membrane thickness was 0.25 mm, inner diameter 2.35-2.65 mm, outer diameter was 3.0-3.25 mm and length 10 mm longer than the elastomer core. The HPBCD content of the implant membrane was 4 wt-%. The membrane was made of PEO-b-PDMS (15 wt-%) and PDMS (85 wt-%). The results are shown in FIG. 2 as the release rate of the therapeutically active agent (μg/d, shown in y-axis) versus time (days, shown in x-axis), wherein the squares represent the results for the Reference 1, the losanges represent the results for an implant having a HPBCD-containing membrane and the triangles illustrate the results for Reference 2. Reference 1 comprises a core having an outer diameter of 2.5 mm and a length of 40 mm, and a membrane, the thickness of which is 0.25 mm. The implant having a membrane containing 1 wt-% HPBCD has a core with an outer diameter of 3.03 mm and a length of 44 mm, and the membrane wall of 0.25 mm. Reference 2 comprises a core having an outer diameter of 2.8 mm, a length of 48 mm and the membrane with a wall of 0.25 mm.

## CC(=O)c1ccc(C2C[C@@]3(C)[C@@H](CCC3(O)C(F)(F)C(F)(F)F)[C@@H]3CCC4=CC(=O)CCC4=C23)cc1 (stereo partly drawn) [FAP, 11-(4-Acetylphenyl)-17-hydroxy-17-(1,1,2,2,2-pentafluoroethyl)estra-4,9-dien-3-one]
[1]; amount of cyclodextrin in membrane 1 wt-%
  burst effect: still some burst effect remaining
[1]; amount of cyclodextrin in the membrane 4 wt-% (vs 1 wt-%)
  level of the release rate: higher
[1]; both cyclodextrin modified samples (1 and 4 wt-%)
  release rate profile compared to reference sample: higher
[1]; both cyclodextrin-modified membranes (1 and 4 wt-% HPBCD) vs reference sample, FIG. 3
  initial burst: decreased
[1]; reference and modified samples compared
  shape of the curve of the release rate after two days: similar

## C#C[C@]1(O)CC[C@H]2[C@@H]3CCC4=Cc5oncc5C[C@]4(C)[C@H]3CC[C@@]21C [danazol, (17alpha)-pregna-2,4-dien-20-yn[2,3-d]isoxazol-17-ol]
[2]; HPBCD modified IVR vs reference samples
  release rate when HPBCD is added into the membrane: seems to be higher
[2]; HPBCD modified IVR, first two weeks, up to the zenith point
  release rate trend over time: slightly increasing trend
[2]; IVR with 0.17 w-% HPBCD content and 0.7 mm membrane wall, two and half week release
  release rate compared to ordinary ring with 0.9 mm wall: stays equal
[2]; IVR without HPBCD (membrane wall 0.3 and 0.9 mm) vs HPBCD modified samples, FIG. 1
  initial burst without the modification relative to that found for modified samples: five to ten times
[2]; IVR without HPBCD (membrane wall 0.3 and 0.9 mm), FIG. 1
  initial burst without the modification relative to the release rate in two weeks dissolution: three to five times
[2]; IVR, all HPBCD modified samples (0.17, 1.7, 7.7 wt-% HPBCD in membrane; wall 0.7, 0.35, 0.25 mm), 1 wt-% hydroxypropyl cyclodextrin medium, 37° C, FIG. 1
  initial burst effect: negative initial burst effect

## C#C[C@]1(O)C=C[C@H]2[C@@H]3CCC4=CC(=O)CC[C@@H]4[C@H]3CC[C@@]21CC [gestodene]
[3]; both reference samples (implants without HPBCD in membrane), FIG. 2
  total decrease of release in 14 days: 30%
[3]; implant with cyclodextrin (HPBCD) modified membrane
  total decrease of the gestodene release from the second to the third week: 0.5%
[3]; implant with cyclodextrin (HPBCD) modified membrane, FIG. 2
  maximum decrease of release in two weeks: ca. 6%
[3]; reference samples (implants without HPBCD in membrane)
  decrease of the gestodene release from the second to the third week: 8.4% and 11%
